Source: PubChem BioAssay (NCI)
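96-well plates; 48 h exposure; 5 concentrations. Endpoints by linear interpolation between flanking doses. Not reached: highest tested concentration assigned. At the TGI there is no net growth.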

Legend:
Assay in all cases: DTP human tumour cell line panel, 48 h
DU-145 prostate = tested on: DU-145 prostate
SK-MEL-28 melanoma = tested on: SK-MEL-28 melanoma
A549 NSCLC = tested on: A549 NSCLC
T-47D breast = tested on: T-47D breast
EKVX NSCLC = tested on: EKVX NSCLC
UACC-62 melanoma = tested on: UACC-62 melanoma
SNB-19 CNS = tested on: SNB-19 CNS
UACC-257 melanoma = tested on: UACC-257 melanoma
RPMI-8226 leukemia = tested on: RPMI-8226 leukemia
IGROV1 ovarian = tested on: IGROV1 ovarian
MDA-MB-231 breast = tested on: MDA-MB-231 breast
PC-3 prostate = tested on: PC-3 prostate
NCI/ADR-RES ovarian = tested on: NCI/ADR-RES ovarian
LOX IMVI melanoma = tested on: LOX IMVI melanoma
SF-295 CNS = tested on: SF-295 CNS
SW-620 colon = tested on: SW-620 colon
CCRF-CEM leukemia = tested on: CCRF-CEM leukemia
OVCAR-4 ovarian = tested on: OVCAR-4 ovarian

Compound	TGI (DU-145 prostate) [µM]	TGI (SK-MEL-28 melanoma) [µM]	TGI (A549 NSCLC) [µM]	TGI (T-47D breast) [µM]	TGI (EKVX NSCLC) [µM]	TGI (UACC-62 melanoma) [µM]	TGI (SNB-19 CNS) [µM]	TGI (UACC-257 melanoma) [µM]	TGI (RPMI-8226 leukemia) [µM]	TGI (IGROV1 ovarian) [µM]	TGI (MDA-MB-231 breast) [µM]	TGI (PC-3 prostate) [µM]	TGI (NCI/ADR-RES ovarian) [µM]	TGI (LOX IMVI melanoma) [µM]	TGI (SF-295 CNS) [µM]	TGI (SW-620 colon) [µM]	TGI (CCRF-CEM leukemia) [µM]	TGI (OVCAR-4 ovarian) [µM]
CCOC(=O)C(N)CSC(=O)NC (stereo not given)	597	440	836	773	546	304	600	535	214	481	340	455	362	133	592	308	147	481
O=C(NCCCNC(=O)c1ccc2c(O)c(O)ccc2c1)c1ccc2c(O)c(O)ccc2c1	> 100	> 100	> 100	> 100	> 79.9	> 90	> 70.9	53	> 100	40.8	> 73.4	> 100	> 100	> 100	38.2	> 62.2	> 100	> 100
CC(=O)c1sc2c(c1OC(=O)c1cccs1)c(=O)n(-c1ccccc1)c(=S)n2-c1ccccc1	57.8	15.6	> 100	> 100	51.1	37.9	44.8	43.9	20.3	35.4	32.2	15.2	43.3	17.2	7.13	45.9	22.6	38.8
COc1ccc(CCNC2=CC(=O)c3ncccc3C2=O)cc1OC	3.57	2.69	2.51	24.7	29.6	1.24	7.27	3.19	> 43	7.63	3.72	23.4	9.32	3.14	2.21	5.54	39.1	16.7
CCN(CC)c1ccc2cc(-c3nnc(-c4ccccc4)o3)c(=O)oc2c1	> 100	> 100	> 100	> 71.4	> 100	> 100	> 80.9	> 100	> 100	> 80.8	> 77.9	> 100	> 100	> 100	> 100	> 100	> 100	> 100
CN(Nc1cc(=O)[nH]c(=O)[nH]1)c1ccccc1	> 100	> 100	> 100	> 100	> 100	> 100	> 100	> 100	> 100	> 100	> 100	> 100	> 100	> 100	> 100	> 100	> 100	> 100
N#CC(NNC(=O)Cc1ccccc1)c1ccccc1O (stereo not given)	> 74.6	> 100	> 90.4	> 65.3	> 100	28.8	> 80.8	> 94.3	> 100	> 100	> 72	> 100	> 74.6	31.5	> 100	> 100	> 54.9	> 100
O=C1NC(=O)C(c2c[nH]c3cc(Br)ccc23)=C1c1cn(C(c2ccccc2)(c2ccccc2)c2ccccc2)cn1	62.8	92.6	27.3	93	29.1	> 100	97.4	51.2	36.8	28.5	21.4	50.4	> 100	33.4	> 100	> 100	> 100	> 100
COc1ccc2c3c1O[C@H]1C(O)CCC4(O)[C@@H](C2)NCC[C@]314 (stereo not given in full)	> 100	> 100	> 100	> 100	> 100	> 100	> 100	> 100	> 100	> 100	> 100	> 100	> 100	> 100	> 100	> 100	> 100	> 100
O=C(O)c1ccc(NNc2cc(=O)[nH]c(=O)[nH]2)cc1	> 100	> 100	> 100	> 100	> 100	> 100	> 100	> 100	> 100	> 100	> 100	83.7	> 100	> 100	> 100	> 100	> 100	> 100
Cc1cc(C)cc(C(=N)c2ccccc2Cc2cccc3ccccc23)c1	29.7	34.7	42.4	46.3	46.4	29	43	64.1	67	34.9	> 100	> 100	46.3	33	25.5	31.8	26.5	33.7
COC(=O)C1=C(C)NC(C)=C(C(=O)OC)C1c1ccc(/[N+]([O-])=C/c2ccccc2)cc1	> 100	36.8	> 100	40.6	> 100	> 100	> 100	> 100	> 100	> 100	> 100	> 100	> 100	> 100	> 100	35.5	48	32.6
CC(=O)OC1CC2c3cccc4c3C(CC2N(C)C1=O)CN4C(=O)c1ccccc1 (stereo not given)	42.1	77.1	37.2	> 100	83.1	50.3	> 100	49.9	> 100	43.8	52.4	79.6	45.1	25.3	69.5	> 100	> 100	92.3
CC1(C)OCC2OC3(c4nc(C#N)c(N)o4)OC(C)(C)OC3C2O1 (stereo not given)	> 100	> 100	> 100	> 100	> 100	> 100	> 100	> 100	> 100	> 100	> 100	> 100	> 100	> 100	> 100	> 100	> 100	> 100
COc1ccc2c(c1)CCc1c-2[nH]c2ccc(OC)cc12	> 100	> 100	> 100	> 100	> 100	> 100	> 100	> 100	> 100	> 100	> 100	> 100	> 100	> 100	> 100	> 100	97.7	> 100
CC1(C#N)CC(C)(C)C(/C=C2/CC(C)(C)C(/C=C3/OC(=N)CC3(C)C)=N2)=N1 (stereo not given)	> 100	> 100	> 100	61.8	51.6	66	> 100	48.7	64	46.3	> 100	> 100	54	> 100	60.9	> 100	> 100	43.7
N#CSc1nc[nH]c1C(N)=O	> 100	> 100	> 100	> 100	> 100	> 100	> 100	> 100	44.7	> 100	> 100	> 100	> 100	> 100	> 100	> 100	14.4	> 100
CSC1=C(SC)SC(=C2SC3=C(SC(=C4SCCS4)S3)S2)S1	> 100	> 100	> 100	> 100	> 100	> 100	> 100	> 100	> 100	> 100	> 100	> 100	> 100	> 100	> 100	> 100	> 100	> 100
C=CCNC1=C2C[C@@H](C)C[C@@H](OC)[C@@H](OC(=O)CCCN)[C@H](C)/C=C(\C)[C@@H](OC(N)=O)[C@H](OC)/C=C\C=C(/C)C(=O)NC(=CC1=O)C2=O	38.3	41.9	32.8	> 67.2	39.1	31.8	32.2	31.9	46.9	30.1	33.5	29.1	> 100	> 47.3	31.6	> 60	28.9	48.4
C/C(=N\Nc1cc(CN2CCCC2)c(-c2ccc(Cl)cc2)nn1)C(=O)O	> 100	> 100	> 100	> 100	> 100	> 100	> 100	> 100	> 100	> 100	> 100	> 100	> 100	> 100	> 100	> 100	> 100	> 100
